In the assay the target is CDK12 wt/CycK (Homo sapiens (Human), UniProt Q9NYV4). Put plainly: Radiometric protein kinase assay (33PanQinase Activity Assay), Assay Condition A (thiol containing conditions). The class given is biochemical. Conditions: thiol containing conditions (1.2 mM DTT), ATP at apparent Km. The procedure:
Objective: The IC50 profile of test compounds was determined using three protein kinases.
Test compounds: The compounds were provided as pre-weighed powders in vials. The compounds were dissolved to 1×10^−02M by adding DMSO. 100 μl of each of the resulting stock solutions were transferred into column 2 of four 96 well “master plates”.
Prior to testing, the 1×10^−02M stock solutions in column 2 of the master plates were subjected to a serial, semi-logarithmic dilution using 100% DMSO as a solvent. […] Column 1 and 7 were filled with 100% DMSO as controls. […]
The reaction cocktails were incubated at 30° C. for 60 minutes. […] Incorporation of ^33Pi was determined with a microplate scintillation counter (Microbeta, Wallac). […]
Evaluation of raw data: The median value of the counts in column 1 (n=8) of each assay plate was defined as “low control”. This value reflects unspecific binding of radioactivity to the plate in the absence of a protein kinase but in the presence of the substrate. […]
As part of the data evaluation the low control value from a particular plate was subtracted from the high control value as well as from all 80 “compound values” of the corresponding plate. The residual activity (in %) for each well of a particular plate was calculated by using the following formula: Res. Activity (%)=100×[(cpm of compound−low control)/(high control−low control)] […]

CDK12 wt/CycK, sequence (Q9NYV4 whole entry): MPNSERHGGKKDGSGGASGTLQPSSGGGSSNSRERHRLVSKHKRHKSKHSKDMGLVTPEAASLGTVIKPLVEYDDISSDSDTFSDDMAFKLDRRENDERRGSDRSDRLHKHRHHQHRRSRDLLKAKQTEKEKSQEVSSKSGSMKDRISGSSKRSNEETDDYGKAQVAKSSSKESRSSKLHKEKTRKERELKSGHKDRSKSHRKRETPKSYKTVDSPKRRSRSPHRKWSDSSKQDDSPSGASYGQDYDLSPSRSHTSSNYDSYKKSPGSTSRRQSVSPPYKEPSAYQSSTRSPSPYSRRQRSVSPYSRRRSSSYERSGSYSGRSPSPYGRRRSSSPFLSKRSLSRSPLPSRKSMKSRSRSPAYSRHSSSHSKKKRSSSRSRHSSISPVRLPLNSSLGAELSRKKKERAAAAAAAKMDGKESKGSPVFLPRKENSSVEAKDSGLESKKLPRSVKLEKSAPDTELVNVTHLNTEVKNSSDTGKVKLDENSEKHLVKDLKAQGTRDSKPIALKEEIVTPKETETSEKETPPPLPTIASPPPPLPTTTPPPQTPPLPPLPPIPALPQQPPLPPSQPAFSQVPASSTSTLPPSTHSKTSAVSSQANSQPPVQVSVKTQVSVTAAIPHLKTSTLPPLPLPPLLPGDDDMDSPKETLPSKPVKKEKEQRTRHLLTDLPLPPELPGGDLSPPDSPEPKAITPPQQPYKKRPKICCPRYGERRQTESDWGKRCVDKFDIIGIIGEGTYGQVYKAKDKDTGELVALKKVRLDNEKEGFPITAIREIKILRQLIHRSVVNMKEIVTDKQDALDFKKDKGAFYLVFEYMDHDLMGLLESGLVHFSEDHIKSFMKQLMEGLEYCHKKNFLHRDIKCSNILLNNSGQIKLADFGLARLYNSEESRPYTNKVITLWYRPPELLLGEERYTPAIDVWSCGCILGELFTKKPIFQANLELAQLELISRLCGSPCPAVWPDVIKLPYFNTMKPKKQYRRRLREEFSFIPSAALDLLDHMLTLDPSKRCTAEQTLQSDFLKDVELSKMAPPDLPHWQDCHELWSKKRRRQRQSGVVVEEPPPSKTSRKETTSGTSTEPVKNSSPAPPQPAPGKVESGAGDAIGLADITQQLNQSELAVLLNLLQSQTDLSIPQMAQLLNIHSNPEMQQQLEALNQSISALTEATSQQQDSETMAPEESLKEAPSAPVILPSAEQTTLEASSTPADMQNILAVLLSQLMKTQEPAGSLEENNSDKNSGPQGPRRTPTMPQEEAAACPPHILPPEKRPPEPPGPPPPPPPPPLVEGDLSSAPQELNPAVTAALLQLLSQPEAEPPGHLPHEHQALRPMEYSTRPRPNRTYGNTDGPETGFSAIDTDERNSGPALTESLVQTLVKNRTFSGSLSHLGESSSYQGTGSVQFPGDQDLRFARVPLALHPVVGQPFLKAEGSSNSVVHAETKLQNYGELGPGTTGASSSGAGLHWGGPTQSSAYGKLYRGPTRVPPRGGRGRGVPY
CDK12 wt/CycK, sequence (O75909 whole entry partner): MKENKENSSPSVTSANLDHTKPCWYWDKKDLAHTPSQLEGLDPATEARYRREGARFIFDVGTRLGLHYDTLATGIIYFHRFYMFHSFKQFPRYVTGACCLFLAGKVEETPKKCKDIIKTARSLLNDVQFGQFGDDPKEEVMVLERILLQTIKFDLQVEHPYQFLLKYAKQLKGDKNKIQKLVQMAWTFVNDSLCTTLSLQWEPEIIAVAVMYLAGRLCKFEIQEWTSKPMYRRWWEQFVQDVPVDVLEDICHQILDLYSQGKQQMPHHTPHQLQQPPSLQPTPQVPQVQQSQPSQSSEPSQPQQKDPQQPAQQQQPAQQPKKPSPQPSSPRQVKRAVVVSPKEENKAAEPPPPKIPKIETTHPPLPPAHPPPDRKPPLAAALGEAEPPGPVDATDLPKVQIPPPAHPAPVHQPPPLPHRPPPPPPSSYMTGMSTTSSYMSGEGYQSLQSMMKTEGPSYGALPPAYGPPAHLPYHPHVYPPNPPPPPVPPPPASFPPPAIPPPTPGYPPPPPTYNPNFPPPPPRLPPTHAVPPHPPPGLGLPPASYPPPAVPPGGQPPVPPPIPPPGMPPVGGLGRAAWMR

Turning to `COc1nc(N[C@@H]2CCN(C(=O)c3ccc(NC(=O)/C=C/CN4CC[C@@H](F)C4)cn3)C2)ncc1Cl` [Example 170, (E)-N-(6-((R)-3-((5-chloro-4-methoxypyrimidin-2-yl)amino)pyrrolidine-1-carbonyl)pyridin-3-yl)-4-((R)-3-fluoropyrrolidin-1-yl)but-2-enamide], the IC50 was in the range of 100 to 1000 nM. For “(R)—N-(3-(3-((5-chloropyrimidin-2-yl)amino)pyrrolidine-1-carbonyl)phenyl)-2-cyano-3-(dimethylamino)acrylamide [Example 135]” the value was 1000 to 10000 nM.

The record behind these values is patent publication US11390618B2, “Inhibitors of cyclin-dependent kinases” (Kinnate Biopharma Inc., priority 2018, dated 2022).
